“And” between values parts separate entries of the source, which are not always exact repeats. Equal entries are not always repeated.
Assay: Infusion compatibility of constituted 25HC3S solution with 5% dextrose, 0.9% sodium chloride and two infusion sets
Assay type: physicochemical
Conditions: for Osmolality / pH / % Remaining Compared to T = 0 / Concentration / T = 0 Conc.: 5% dextrose bag
Protocol: After constitution with Vehicle, the 30 mg/mL 25HC3S product was diluted into 100 mL of 5% dextrose injection, USP or 0.9% sodium chloride injection, USP, and was administered to subjects as an IV infusion ranging from a 30 mg to 150 mg 25HC3S dose. This was accomplished by adding 1.0 mL (for the 30 mg dose) or 5.0 mL (for the 150 mg dose), or any volume in between, of the 30 mg/mL 25HC3S product into a 100 mL dextrose or sodium chloride infusion bag. The entire admixture content in the infusion bag was infused into the subject over approximately 2 hours at a rate of 50 mL/hour.
A physical and chemical compatibility study was conducted at a 30 mg, 48 mg and 300 mg 25HC3S dose in 5% dextrose and 0.9% sodium chloride infusion bags. Descriptions of the two kinds of infusion sets tested with 25HC3S product diluted in 5% dextrose and 0.9% sodium chloride are listed in Table 15. The tubing in catalog number 2H8480 infusion set was composed of polyvinylchloride (PVC), while the tubing in catalog number 2C8858 was polyethylene lined except for a short pump segment (approximately 12 inches) which was composed of PVC.
25HC3S for Injection and Vehicle for 25HC3S for Injection, that had been stored at 2-8° C. for approximately 16 months, were used for the compatibility study. After constitution, 30 mg (1.0 mL of constituted product), 48 mg (1.6 mL of constituted product) or 300 mg (10 mL of constituted product) were added to 100 mL infusion bags of 5% dextrose and 0.9% sodium chloride, mixed thoroughly, and stored for 24 hours at room temperature and at 2-8° C. […] Taking into consideration the overfill per infusion bag and the additional volume introduced by adding the constituted 25HC3S product to each bag, the expected concentrations of 25HC3S were 0.28 mg/mL, 0.44 mg/mL, and 2.56 mg/mL in the infusion bags. Two kinds of infusion sets were then attached to the drug containing infusion bags, and the entire contents were eluted through the infusion sets at approximately 50 mL/hour at room temperature. Samples were collected from the 25HC3S prepared infusion bags at T=0 and at 24 hours, and from the total eluent passed through the infusion sets, and tested for 25HC3S concentration using HPLC. Solution visual appearance, osmolality (using method USP<785>), and pH (using method USP<791>) were also measured on the collected samples.

[1] = 5% dextrose, ~0.28 mg/mL, 24 h 2-8°C then Baxter 2C8858
[2] = 5% dextrose, ~0.28 mg/mL, 24 h 2-8°C then Baxter 2H8480
[3] = 5% dextrose, ~0.28 mg/mL, 24 h RT then Baxter 2C8858
[4] = 5% dextrose, ~0.28 mg/mL, 24 h RT then Baxter 2H8480
[5] = 5% dextrose, ~0.44 mg/mL, 24 h 2-8°C then Baxter 2C8858
[6] = 5% dextrose, ~0.44 mg/mL, 24 h 2-8°C then Baxter 2H8480
[7] = 5% dextrose, ~0.44 mg/mL, 24 h RT then Baxter 2C8858
[8] = 5% dextrose, ~0.44 mg/mL, 24 h RT then Baxter 2H8480
[9] = 5% dextrose, ~2.56 mg/mL, 24 h 2-8°C then Baxter 2C8858
[10] = 5% dextrose, ~2.56 mg/mL, 24 h 2-8°C then Baxter 2H8480
[11] = 5% dextrose, ~2.56 mg/mL, 24 h RT then Baxter 2C8858
[12] = 5% dextrose, ~2.56 mg/mL, 24 h RT then Baxter 2H8480

For `C[C@H](CCCC(C)(C)O)[C@H]1CC[C@H]2[C@@H]3CC=C4C[C@@H](OS(=O)(=O)[O-])CC[C@]4(C)[C@H]3CC[C@]12C.[Na+]` [25HC3S, 5-cholesten-3, 25-diol, 3-sulfate], the Osmolality (~0.28 mg/mL, 24 Hours at 2-8°C) was 250 mmol/kg and 253 mmol/kg, the pH (~0.28 mg/mL, 24 Hours at 2-8°C) was 7.09 and 7.04 and the “% Remaining Compared to T = 0” value (~0.28 mg/mL, 24 Hours at RT) was “(100.0%)”. For the same compound, the Concentration (~0.28 mg/mL, 24 Hours at RT) was 276 µg/mL and 277 µg/mL, the Osmolality (~0.28 mg/mL, 24 Hours at RT) was 252 mmol/kg and 249 mmol/kg and the pH (~0.28 mg/mL, 24 Hours at RT) was 7.12 and 7.05. The Osmolality (~0.28 mg/mL, T = 0) was 247 mmol/kg and 250 mmol/kg and 251 mmol/kg, the “T = 0 Conc.” value (~0.28 mg/mL, T = 0) was 0.276 mg/mL and 0.277 mg/mL and 0.280 mg/mL and 0.279 mg/mL and the pH (~0.28 mg/mL, T = 0) was 7.09 and 7.03 and 7.10 and 7.04. The Concentration (~0.44 mg/mL, 24 Hours at 2-8°C) was 438 µg/mL and 440 µg/mL, the Osmolality (~0.44 mg/mL, 24 Hours at 2-8°C) was 254 mmol/kg and 257 mmol/kg and the pH (~0.44 mg/mL, 24 Hours at 2-8°C) was 6.96 and 6.93. For the same compound, the “% Remaining Compared to T = 0” value (~0.44 mg/mL, 24 Hours at RT) was “(100.0%)”, the Concentration (~0.44 mg/mL, 24 Hours at RT) was 447 µg/mL and 442 µg/mL and the Osmolality (~0.44 mg/mL, 24 Hours at RT) was 256 mmol/kg and 253 mmol/kg. For the same compound, the pH (~0.44 mg/mL, 24 Hours at RT) was 6.91 and 6.90, the Osmolality (~0.44 mg/mL, T = 0) was 255 mmol/kg and 254 mmol/kg and 256 mmol/kg and the “T = 0 Conc.” value (~0.44 mg/mL, T = 0) was 0.447 mg/mL and 0.442 mg/mL and 0.439 mg/mL. The pH (~0.44 mg/mL, T = 0) was 6.83 and 6.81 and 6.82 and 6.88, the Concentration (~2.56 mg/mL, 24 Hours at 2-8°C) was 2550 µg/mL and 2530 µg/mL and the Osmolality (~2.56 mg/mL, 24 Hours at 2-8°C) was 246 mmol/kg and 251 mmol/kg. For the same compound, the pH (~2.56 mg/mL, 24 Hours at 2-8°C) was 6.11 and 6.14, the Concentration (~2.56 mg/mL, 24 Hours at RT) was 2470 µg/mL and 2520 µg/mL and the Osmolality (~2.56 mg/mL, 24 Hours at RT) was 257 mmol/kg and 250 mmol/kg. For the same compound, the pH (~2.56 mg/mL, 24 Hours at RT) was 6.12 and 6.06, the Osmolality (~2.56 mg/mL, T = 0) was 258 mmol/kg and 247 mmol/kg and the “T = 0 Conc.” value (~2.56 mg/mL, T = 0) was 2.500 mg/mL and 2.510 mg/mL and 2.530 mg/mL and 2.525 mg/mL. For the same compound, the pH (~2.56 mg/mL, T = 0) was 6.04 and 6.12 and 6.29 and 6.26, the “deviation of concentrations from initial T=0 time point” value (5% dextrose, 24 hours at RT and 2-8°C and after elution through infusion sets) was at most 1.4% and the “% Remaining after infusion set” value [1] was “(100.4%)”. For the same compound, the “Concentration after infusion set” value [1] was 280 µg/mL, the “Osmolality after infusion set” value [1] was 252 mmol/kg and the “pH after infusion set” value [1] was 6.99. The “% Remaining after infusion set” value [2] was “(100.0%)”, the “Concentration after infusion set” value [2] was 280 µg/mL and the “Osmolality after infusion set” value [2] was 251 mmol/kg. The “pH after infusion set” value [2] was 6.95, the “% Remaining after infusion set” value [3] was “(100.0%)” and the “Concentration after infusion set” value [3] was 277 µg/mL. The “Osmolality after infusion set” value [3] was 252 mmol/kg, the “pH after infusion set” value [3] was 7.04 and the “% Remaining after infusion set” value [4] was “(100.0%)”. For the same compound, the “Concentration after infusion set” value [4] was 276 µg/mL, the “Osmolality after infusion set” value [4] was 252 mmol/kg and the “pH after infusion set” value [4] was 6.99. The “% Remaining after infusion set” value [5] was “(100.2%)”, the “Concentration after infusion set” value [5] was 440 µg/mL and the “Osmolality after infusion set” value [5] was 255 mmol/kg. The “pH after infusion set” value [5] was 6.93, the “% Remaining after infusion set” value [6] was “(100.2%)” and the “Concentration after infusion set” value [6] was 440 µg/mL. The “Osmolality after infusion set” value [6] was 257 mmol/kg, the “pH after infusion set” value [6] was 6.91 and the “% Remaining after infusion set” value [7] was “(100.0%)”. For the same compound, the “Concentration after infusion set” value [7] was 442 µg/mL, the “Osmolality after infusion set” value [7] was 253 mmol/kg and the “pH after infusion set” value [7] was 6.90. For the same compound, the “% Remaining after infusion set” value [8] was “(100.2%)”, the “Concentration after infusion set” value [8] was 448 µg/mL and the “Osmolality after infusion set” value [8] was 253 mmol/kg. The “pH after infusion set” value [8] was 6.91, the “% Remaining after infusion set” value [9] was “(100.4%)” and the “Concentration after infusion set” value [9] was 2535 µg/mL. The “Osmolality after infusion set” value [9] was 248 mmol/kg, the “pH after infusion set” value [9] was 6.10 and the “% Remaining after infusion set” value [10] was “(100.4%)”. For the same compound, the “Concentration after infusion set” value [10] was 2540 µg/mL, the “Osmolality after infusion set” value [10] was 247 mmol/kg and the “pH after infusion set” value [10] was 5.99. For the same compound, the “% Remaining after infusion set” value [11] was “(101.4%)”, the “Concentration after infusion set” value [11] was 2545 µg/mL and the “Osmolality after infusion set” value [11] was 251 mmol/kg. For the same compound, the “pH after infusion set” value [11] was 6.00, the “% Remaining after infusion set” value [12] was “(99.2%)” and the “Concentration after infusion set” value [12] was 2480 µg/mL. The “Osmolality after infusion set” value [12] was 261 mmol/kg, the “pH after infusion set” value [12] was 6.01 and the solution appearance (dextrose and sodium chloride, all three concentrations, after 24 hours in bags and after elution) was “clear and colorless solutions”. For the same compound, the “decrease of pH over 24 hours in the infusion bags” value (sodium chloride, approximately 0.28 mg/mL 25HC3S) was about 0.5 pH unit.

From patent US20230047788A1, “COMPOSITIONS COMPRISING 5-CHOLESTEN-3, 25-DIOL, 3-SULFATE (25HC3S) OR PHARMACEUTICALLY ACCEPTABLE SALT THEREOF AND AT LEAST ONE CYCLIC OLIGOSACCHARIDE” (Virginia Commonwealth University, priority 2016, published 2023)
